The assay in a line: Inhibition of PDK1 (unknown origin).

The values that follow come from BindingDB's records for PubMed 35033884 (Indian Institute of Technology (B.H.U.), 2022).

What is called IC50 is the concentration needed to halve the response being measured. For `NC(=O)Nc1ccc2c(c1)/C(=C/c1ccc[nH]1)C(=O)N2` [indolinone based inhibitor, 3l], half-maximal inhibition (IC50) required 20 nM.
The figure for `NC(=O)Nc1ccc2c(c1)/C(=C/c1cc(-c3ccccn3)c[nH]1)C(=O)N2` is 8 nM.
For the compound `CN(C)CCNC(=O)c1cccc(-c2c[nH]c(/C=C3\C(=O)Nc4ccc(NC(N)=O)cc43)c2)c1` [3-(5-{[(3Z)-5-(carbamoylamino)-2-oxo-2,3-dihydro-1H-indol-3-ylidene]methyl}-1H-pyrrol-3-yl)-N-[2-(dimethylamino)ethyl]benzamide], half-maximal inhibition (IC50) was put at 4 nM.
The figure for `C/C(=C1/C(=O)Nc2ccc(NC(N)=O)cc21)c1cc(CNC(=O)C2CCNCC2)c[nH]1` [N-[(5-{1-[(3Z)-5-(carbamoylamino)-2-oxo-2,3-dihydro-1H-indol-3-ylidene]ethyl}-1H-pyrrol-3-yl)methyl]piperidine-4-carboxamide] is 6 nM.
